Starred links: 1 amine or outer side, 2 acyl side, 3 side chain; linkers in the order of their positions; H or OH if unused. Positions of bridges follow the written chain, without caps; N, C: chain ends. Non-standard residues stand in square brackets, D forms with d. Residues, ends and D or L forms follow the SMILES beside them. *: point of attachment. hPhe(3-Cl-4-CF3) = N[C@@H](CCc1ccc(C(F)(F)F)c(Cl)c1)C(=O)O; hPhe(3-OMe-4-CF3) = COc1cc(CC[C@H](N)C(=O)O)ccc1C(F)(F)F; X67 = O=C([C@H](CCc1cc(F)c(F)cc1F)N[*:1])[*:2]; NMePhe(4-Cl) = CN[C@@H](Cc1ccc(Cl)cc1)C(=O)O; NMePhe(4-Me) = CN[C@@H](Cc1ccc(C)cc1)C(=O)O; NMePhe(2-Cl) = CN[C@@H](Cc1ccccc1Cl)C(=O)O; NMedβ3hAla = C[C@H](CC(=O)[*:2])N(C)[*:1]; NMeGly(cPent) = CN[C@H](C(=O)O)C1CCCC1; Phe(3-I) = N[C@@H](Cc1cccc(I)c1)C(=O)O; X70 = CC(C)(O)COCCN(CC(=O)[*:2])[*:1]; X84 = O=C(CN(CCc1ccncc1)[*:1])[*:2]; NMeCha = CN[C@@H](CC1CCCCC1)C(=O)O; NMeChg = CN[C@H](C(=O)O)C1CCCCC1; NMeF = CN[C@@H](Cc1ccccc1)C(=O)O; NMeI = CC[C@H](C)[C@H](NC)C(=O)O; NMeE = CN[C@@H](CCC(=O)O)C(=O)O; NMeD = CN[C@@H](CC(=O)O)C(=O)O; Benzyl(4-Cl) = Clc1ccc(C*)cc1; NMeL = CN[C@@H](CC(C)C)C(=O)O; NMeV = CN[C@H](C(=O)O)C(C)C; d(β3hA) = C[C@@H](N)CC(=O)O; NMeS = CN[C@@H](CO)C(=O)O; Morpholide = C1CN(*)CCO1; NMeA = CN[C@@H](C)C(=O)O; Nle = CCCC[C@H](N)C(=O)O; Piperidide = C1CCN(*)CC1; dNMeA = CN[C@H](C)C(=O)O; Ac5c = NC1(C(=O)O)CCCC1; Aze = O=C(O)[C@@H]1CCN1; X76 = Clc1cccc(C*)c1; X27 = Clc1ccccc1C*; NEtG = CCNCC(=O)O; Sar = CNCC(=O)O; Propyl = CCC*
Biological target: T1, Kras and SOS1 (biotin-tagged human Kras loaded with GDP, His-tagged human SOS1) (Homo sapiens, UniProt P01116, G12D)
T1 construct: made in house; host or cells: E. coli (stated for Kras only)
Assay: Protein-protein interaction inhibition between Kras and SOS1 (KrasGl2D-SOS PPI) using AlphaScreen
Format: binding
Conditions: AlphaScreen; biotin-tagged human Kras loaded with GDP, His-tagged human SOS1; read-out: KRAS G12D-SOS PPI IC50
Outline: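 Read-out is acceptor-bead light at 520-620 nm, arising when 680 nm-irradiated nickel donor beads pass singlet oxygen to streptavidin acceptors. The bead pair links His-tagged SOS1 with biotin-tagged, GDP-bound Kras from E. coli.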

T1 sequence (P01116 1-188 isoform P01116-2 G12D): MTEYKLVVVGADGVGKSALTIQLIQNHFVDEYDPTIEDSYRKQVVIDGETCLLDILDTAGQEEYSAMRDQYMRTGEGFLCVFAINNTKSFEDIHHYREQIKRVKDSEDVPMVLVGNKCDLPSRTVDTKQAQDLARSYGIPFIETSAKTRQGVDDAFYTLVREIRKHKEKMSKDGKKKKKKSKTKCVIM

SMILES | IC50
CC[C@H](C)[C@@H]1NC(=O)[C@H](C)N(C)C(=O)C[C@@H](C(=O)N(C)C)N(C)C(=O)[C@H]([C@@H](C)CC)N(C)C(=O)C2(CCCC2)NC(=O)[C@H](Cc2ccccc2Cl)N(C)C(=O)[C@H](CCc2ccc(C(F)(F)F)c(Cl)c2)NC(=O)CN(C)C(=O)[C@H](Cc2ccc(C)cc2)N(C)C(=O)[C@@H]2CCN2C(=O)[C@H](C)N(C)C1=O [Compound 2011] ([NMeA]I[NMeA][Aze][NMePhe(4-Me)][Sar][hPhe(3-Cl-4-CF3)][NMePhe(2-Cl)][Ac5c][NMeI][NMeD]-NMe2; lactam N-11) | 17 nM
CC[C@H](C)[C@@H]1NC(=O)[C@H](C)N(C)C(=O)C[C@@H](C)NC(=O)[C@H](C(C)C)N(C)C(=O)C2(CCCC2)NC(=O)[C@@H]2CCCN2C(=O)[C@H](CCc2ccc(C(F)(F)F)c(Cl)c2)NC(=O)[C@@H](C)N(C)C(=O)[C@H](CC2CCCCC2)N(C)C(=O)[C@@H]2CCCN2C(=O)CN(CC)C1=O [Compound 2014] (cyclo([Ac5c][NMeV][d(β3hA)][NMeA]I[NEtG]P[NMeCha][dNMeA][hPhe(3-Cl-4-CF3)]P)) | 340 nM
CC[C@H](C)[C@@H]1NC(=O)[C@H](C)N(C)C(=O)C[C@@H](C)NC(=O)[C@H](C(C)C)N(C)C(=O)C2(CCCC2)NC(=O)[C@@H]2CCCN2C(=O)[C@H](CCc2ccc(C(F)(F)F)c(Cl)c2)NC(=O)[C@@H](C)N(C)C(=O)[C@H](CC2CCCCC2)N(C)C(=O)[C@@H]2CCN2C(=O)[C@H](CC2CCCCC2)N(C)C1=O [Compound 2015] (cyclo([Ac5c][NMeV][d(β3hA)][NMeA]I[NMeCha][Aze][NMeCha][dNMeA][hPhe(3-Cl-4-CF3)]P)) | 260 nM
CC[C@H](C)[C@@H]1NC(=O)[C@H](C)N(C)C(=O)C[C@@H](C)NC(=O)[C@H](C(C)C)N(C)C(=O)C2(CCCC2)NC(=O)[C@@H]2CCCN2C(=O)[C@H](CCc2ccc(C(F)(F)F)c(Cl)c2)NC(=O)[C@@H](C)N(C)C(=O)[C@H](CC2CCCCC2)N(C)C(=O)[C@@H]2CCN2C(=O)[C@H](Cc2ccccc2)N(C)C1=O [Compound 2019] (cyclo([Ac5c][NMeV][d(β3hA)][NMeA]I[NMeF][Aze][NMeCha][dNMeA][hPhe(3-Cl-4-CF3)]P)) | 110 nM
CC[C@H](C)[C@@H]1NC(=O)[C@H](CC(C)C)N(C)C(=O)C[C@@H](C(=O)N(C)C)N(C)C(=O)[C@H](C2CCCC2)N(C)C(=O)C2(CCCC2)NC(=O)CN(CCOCC(C)(C)O)C(=O)[C@H](CCc2ccc(C(F)(F)F)c(Cl)c2)NC(=O)CN(C)C(=O)[C@H](CC2CCCCC2)N(C)C(=O)[C@@H]2CCN2C(=O)[C@H](C)N(C)C1=O [Compound 2023] ([NMeL]I[NMeA][Aze][NMeCha][Sar][hPhe(3-Cl-4-CF3)][X70][Ac5c][NMeGly(cPent)][NMeD]-NMe2; lactam N-11) | 1.7 nM
CCCOC[C@H]1C(=O)N(C)CC(=O)N[C@@H](CCc2ccc(C(F)(F)F)c(Cl)c2)C(=O)N(CCOCC(C)(C)O)CC(=O)NC2(CCCC2)C(=O)N(C)[C@@H]([C@@H](C)CC)C(=O)N(C)[C@H](C)CC(=O)N(C)[C@@H](CC(C)C)C(=O)N[C@@H]([C@@H](C)CC)C(=O)N(C)[C@@H](C)C(=O)N2CC[C@H]2C(=O)N1C [Compound 2027] (cyclo([Ac5c][NMeI][NMedβ3hAla][NMeL]I[NMeA][Aze][NMeS](Propyl)[Sar][hPhe(3-Cl-4-CF3)][X70])) | 110 nM
CC[C@H](C)[C@@H]1NC(=O)[C@H](CC(C)C)N(C)C(=O)C[C@@H](C(=O)N(C)C)N(C)C(=O)[C@H]([C@@H](C)CC)N(C)C(=O)C2(CCCC2)NC(=O)CN(CCOCC(C)(C)O)C(=O)[C@H](CCc2ccc(C(F)(F)F)c(Cl)c2)NC(=O)CN(C)C(=O)[C@H](CC2CCCCC2)N(C)C(=O)[C@@H]2CCN2C(=O)[C@H](C)N(C)C1=O [Compound 2028] ([NMeL]I[NMeA][Aze][NMeCha][Sar][hPhe(3-Cl-4-CF3)][X70][Ac5c][NMeI][NMeD]-NMe2; lactam N-11) | 11 nM
CC[C@H](C)[C@@H]1NC(=O)[C@H](CC(C)C)N(C)C(=O)C[C@@H](C(=O)N2CCCCC2)N(C)C(=O)[C@H](C2CCCCC2)N(C)C(=O)C2(CCCC2)NC(=O)CN(CCc2ccncc2)C(=O)[C@H](CCc2ccc(C(F)(F)F)c(Cl)c2)NC(=O)CN(C)C(=O)[C@H](CC2CCCCC2)N(C)C(=O)CN(C)C(=O)CN(C)C1=O [Compound 2029] ([NMeL]I[Sar][Sar][NMeCha][Sar][hPhe(3-Cl-4-CF3)][X84][Ac5c][NMeChg][NMeD]-Piperidide; lactam N-11) | 0.83 nM
CC[C@H](C)[C@@H]1NC(=O)[C@H](CC(C)C)N(C)C(=O)C[C@@H](C(=O)N(C)C)N(C)C(=O)[C@H]([C@@H](C)CC)N(C)C(=O)C2(CCCC2)NC(=O)CN(CCOCC(C)(C)O)C(=O)[C@H](CCc2ccc(C(F)(F)F)c(Cl)c2)NC(=O)CN(C)C(=O)[C@H](Cc2ccc(C)cc2)N(C)C(=O)[C@@H]2CCN2C(=O)[C@H](C)N(C)C1=O [Compound 2034] ([NMeL]I[NMeA][Aze][NMePhe(4-Me)][Sar][hPhe(3-Cl-4-CF3)][X70][Ac5c][NMeI][NMeD]-NMe2; lactam N-11) | 2 nM
CC[C@H](C)[C@@H]1NC(=O)[C@H](C)N(C)C(=O)C[C@@H](C(=O)N2CCCCC2)N(C)C(=O)[C@H](C2CCCCC2)N(C)C(=O)C2(CCCC2)NC(=O)[C@@H]2CCCN2C(=O)[C@H](COc2ccc(Cl)cc2)NC(=O)CN(C)C(=O)[C@H](CC2CCCCC2)N(C)C(=O)CN(C)C(=O)CN(C)C1=O [Compound 2042, (3S,9S,18S,21S,25S,28S,34S)-3-[(4-chlorophenoxy)methyl]-28-cyclohexyl-9-(cyclohexylmethyl)-7,10,13,16,21,22,26,29-octamethyl-18-[(1S)-1-methylpropyl]-25-(piperidine-1-carbonyl)spiro[1,4,7,10,13,16,19,22,26,29,32-undecazabicyclo[32.3.0]heptatriacontane-31,1′-cyclopentane]-2,5,8,11,14,17,20,23,27,30,33-undecone] | 70 nM
CC[C@H](C)[C@@H]1NC(=O)[C@H](C)N(C)C(=O)C[C@@H](C(=O)N2CCCCC2)N(C)C(=O)[C@H](C2CCCCC2)N(C)C(=O)C2(CCCC2)NC(=O)[C@@H]2CCCN2C(=O)[C@H](COCc2ccccc2Cl)NC(=O)CN(C)C(=O)[C@H](CC2CCCCC2)N(C)C(=O)CN(C)C(=O)CN(C)C1=O [Compound 2043] ([NMeA]I[Sar][Sar][NMeCha][Sar]S(X27)P[Ac5c][NMeChg][NMeD]-Piperidide; lactam N-11) | 12 nM
CC[C@H](C)[C@@H]1NC(=O)[C@H](C)N(C)C(=O)C[C@@H](C(=O)N2CCCCC2)N(C)C(=O)[C@H](C2CCCCC2)N(C)C(=O)C2(CCCC2)NC(=O)[C@@H]2CCCN2C(=O)[C@H](COCc2ccc(Cl)cc2)NC(=O)CN(C)C(=O)[C@H](CC2CCCCC2)N(C)C(=O)CN(C)C(=O)CN(C)C1=O [Compound 2044] ([NMeA]I[Sar][Sar][NMeCha][Sar]S(Benzyl(4-Cl))P[Ac5c][NMeChg][NMeD]-Piperidide; lactam N-11) | 7.9 nM
CC[C@H](C)[C@@H]1NC(=O)[C@H](C)N(C)C(=O)C[C@@H](C(=O)N2CCCCC2)N(C)C(=O)[C@H](C2CCCCC2)N(C)C(=O)C2(CCCC2)NC(=O)[C@@H]2CCCN2C(=O)[C@H](COCc2cccc(Cl)c2)NC(=O)CN(C)C(=O)[C@H](CC2CCCCC2)N(C)C(=O)CN(C)C(=O)CN(C)C1=O [Compound 2045] ([NMeA]I[Sar][Sar][NMeCha][Sar]S(X76)P[Ac5c][NMeChg][NMeD]-Piperidide; lactam N-11) | 15 nM
CC[C@H](C)[C@@H]1NC(=O)[C@H](CC(C)C)N(C)C(=O)C[C@@H](C(=O)N2CCCCC2)N(C)C(=O)[C@H](C2CCCC2)N(C)C(=O)C2(CCCC2)NC(=O)[C@@H]2CCCN2C(=O)[C@H](CCc2ccc(C(F)(F)F)c(OC)c2)NC(=O)CN(C)C(=O)[C@H](CC2CCCCC2)N(C)C(=O)[C@@H]2CCN2C(=O)[C@H](C)N(C)C1=O [Compound 2080] ([NMeL]I[NMeA][Aze][NMeCha][Sar][hPhe(3-OMe-4-CF3)]P[Ac5c][NMeGly(cPent)][NMeD]-Piperidide; lactam N-11) | 0.33 nM
CC[C@H](C)[C@@H]1NC(=O)[C@H](C)N(C)C(=O)C[C@@H](C)NC(=O)[C@H](CC(C)C)N(C)C(=O)[C@H](Cc2ccccc2)N(C)C(=O)[C@H](CC(C)C)NC(=O)[C@H](CCc2cc(F)c(F)cc2F)NC(=O)CN(C)C(=O)[C@H](Cc2ccc(Cl)cc2)N(C)C(=O)CN(C)C(=O)CN(C)C1=O [Compound 2087] (cyclo(I[Sar][Sar][NMePhe(4-Cl)][Sar][X67]L[NMeF][NMeL][d(β3hA)][NMeA])) | 130 nM
CCCC[C@@H]1NC(=O)[C@H](Cc2cccc(I)c2)NC(=O)CN(C)C(=O)[C@H](Cc2ccc(C)cc2)N(C)C(=O)CN(C)C(=O)CN(C)C(=O)[C@H]([C@@H](C)CC)NC(=O)[C@H](CC(C)C)N(C)C(=O)C[C@@H](C(=O)N2CCCCC2)N(C)C(=O)[C@H](CC(C)C)NC(=O)[C@H](CCC(=O)N(C)C)N(C)C1=O [Compound 2100, 3-[(3S,6S,9S,12S,18S,27S,30S,34S)-9-butyl-12-[(3-iodophenyl)methyl]-3,30-diisobutyl-1,7,16,19,22,25,31-heptamethyl-27-[(1S)-1-methylpropyl]-2,5,8,11,14,17,20,23,26,29,32-undecaoxo-34-(piperidine-1-carbonyl)-18-(p-tolylmethyl)-1,4,7,10,13,16,19,22,25,28,31-undecazacyclotetratriacont-6-yl]-N,N-dimethyl-propanamide] ([NMeL]I[Sar][Sar][NMePhe(4-Me)][Sar][Phe(3-I)][Nle][NMeE](NMe2)L[NMeD]-Piperidide; lactam N-11) | 15 nM
CC[C@H](C)[C@@H]1NC(=O)[C@H](CC(C)C)N(C)C(=O)C[C@@H](C(=O)N2CCOCC2)N(C)C(=O)[C@H](C2CCCC2)N(C)C(=O)C2(CCCC2)NC(=O)[C@H](CCC(=O)NC)N(C)C(=O)[C@H](CCc2ccc(C(F)(F)F)c(Cl)c2)NC(=O)CN(C)C(=O)[C@H](CC2CCCCC2)N(C)C(=O)[C@@H]2CCN2C(=O)[C@H](C)N(C)C1=O [Compound 2111] ([NMeL]I[NMeA][Aze][NMeCha][Sar][hPhe(3-Cl-4-CF3)][NMeE](NHMe)[Ac5c][NMeGly(cPent)][NMeD]-Morpholide; lactam N-11) | 8.2 nM

From patent US12371454B2, “Cyclic peptide compound having Kras inhibitory action” (priority 2019, dated 2025)
